Source: patent US7470434B1, “Methods and compositions for blocking microbial adherence to eukaryotic cells” (priority 2007, dated 2008)

How the values were obtained:
Type in all cases: in vivo, human
[1] = test system: bacteria adherent to gingival epithelial cells; test: Treatment of gingival infection: microbial adherence to gingival epithelial cells (Giemsa-stained gingival scrapings); details: for Gingival epithelial cells with 0 Bacteria / Gingival epithelial cells with 1-10 Bacteria / Gingival epithelial cells with 10-100 Bacteria / Gingival epithelial cells with Contiguous lawn: powder on gums twice daily
From the text: In this example isoleucine was applied as a pure crystalline powder directly to the gums. The individuals were normal human volunteers. Each individual had clinically evident low grade gingivitis, as determined by the puffiness of the gingival margin and a history of some bleeding during normal dental brushing. Oral health care comprised twice daily flossing and dental brushing with a non-medicated toothpaste. No oral antiseptic was used. The individuals were not taking antibiotics. Isoleucine was applied by application of powder on the fingertip to the outer and inner gum margins of the upper and lower jaws. The entirety of the gingival surface was covered manually, twice daily. The AM application was performed following breakfast, immediately after brushing. The PM application was conducted prior to retiring for sleep.
Gingival surface was gently scrapped with the side of a rectangular glass cover slip and the material described was applied to a glass microscope slide and air-dried. The slide was stained in concentrated Giemsa stain for 1 min, then destained in water for 5 min. The slide was then air-dried and mounted with a cover slip cemented with Permount. Slides were examined by light microscopy at 100× and 400× magnification. Under these staining conditions bacteria were clearly visualized as dark blue particles against the pale gray epithelial cells.
Gingival scrapings were taken in the morning prior to normal oral care and prior to eating. Prior to scraping, the subject rinsed the mouth with a cup of water to wash free particulate matter, unattached cells, and bacteria.
Scrapings were taken 3 days and 1 day prior to isoleucine administration and 1, 3, 5, and 7 days during isoleucine application. […] The bacteria adherent were represented by several different species, distinguished by morphology. […] At least 200 bacteria were counted on the average on each cell.

[2] = test system: bacterial vaginosis; test: Amelioration of bacterial vaginosis by local isoleucine powder
Protocol: In this example isoleucine was administered locally to the vagina to treat the symptoms of bacterial vaginosis. By inhibiting the adherence of bacteria to the wall of the vagina, microbial growth, inflammation, and associated signs of malodorous discharge and symptoms such as pruritis can be treated. A person, with a normal menstrual cycle and in excellent health, experienced vaginal irritation and malodorous discharge associated with their cycle, generally beginning several days prior to the onset of their period. Isoleucine was self-administered as a powder locally within the vaginal cavity digitally, twice a day. Within 2 days symptoms of vaginosis disappeared. Isoleucine therapy was continued for several days following termination of menstrual discharge, and then stopped. […] Isoleucine was again administered during the following months, cycled as described initially.

[3] = test system: diarrheal agent (nature not known); test: Amelioration of infectious diarrhea by oral isoleucine solution
Protocol: In this example isoleucine was administered to treat infectious diarrhea. In this example three individuals were naturally innoculated by a common agent. The nature of the diarrheal agent is not known. The duration of diarrhea was consistent with an infectious etiology. Isoleucine was utilized based on the hypothesis that reduction in microbial adherence would likely limit the continued re-infection of the gut wall by the agent, and/or prevent attachment of opportunistic commensal organisms.
Three members of a family traveling in the Middle East (MZ, BZ, JZ) contracted watery diarrhea, associated with food intolerance, following a meal they shared at a restaurant. Each individual had been in excellent health without prior history of GI complaints. All were unmedicated, including aspirin or antihistanines. […] Diarrhea was watery, without gross blood, minimal mucous, slight fever with chills, no nausea, and persistence of hunger. Peristalsis was vigorous and increased by ingestion of food. Each individual was placed on a diet restricted to clear liquids (juices and soda), digestible carbohydrates (bread, rice, candy). No medications were administered.
Six days after ingestion of the diarrheal agent, one individual was begun on oral isoleucine (ILE) therapy, while the other two continued on restricted diets. ILE (#E-2025 Bachem, lot 511191) was dissolved in distilled water to 0.001%. One glass of ILE solution (about 250 ml) was consumed every several hours. A total of about 4 liters was consumed over 3½ days. A reduction in stool frequency was noted within 12 hours of initiation of ILE therapy.
BZ and JZ both continued to experience diarrhea unabated until about 11 days after ingestion of the infectious agent, with stool frequency decreasing noticeably. […] Thus, isoleucine therapy was associated with a shortening of the duration of diarrhea by approximately three days.

[4] = Amelioration of irritable bowel syndrome by isoleucine in yogurt
Protocol: In this example isoleucine was administered to individuals who experienced irritable bowel syndrome (IBS). IBS is a loosely defined condition associated with bowel discomfort including abdominal bloating, nausea, pain and a sense of incomplete bowel movements. The etiology underlying IBS is unknown. It is our hypothesis that IBS results from adherence of certain “pathogenic” commensal organisms to the epithelial lining of certain segments of the GI tract, resulting in disturbance of normal host-bacteria relationships. […] Two women, each in their mid-50's, presented with a history of IBS of over 20 years, in each case. In each, IBS was characterized by a sense of bloating experienced after eating cooked or raw vegetables, fruits, and meat. Each individual experienced urgency to move her bowels several times a day to an extent that often awakened the individuals from sleep. Bloating was accompanied by abdominal discomfort, described as mild cramps. Individuals felt “gassy” most of the day. Each individual was given isoleucine, 1 tsp, twice a day, each dose mixed in ½ cup of yogurt. The yogurt was included to promote reinoculation of the GI tract with probiotic “good” bacteria. In each case, it was known from previous experience that yogurt itself had little effect on the IBS experienced by these individuals. Within 2 day so isoleucine administration, bloating, urgency to defecate, and gassiness had disappeared. Both individuals described the state of their bowel function as “normal”, for the first time in 20 years. […] Each was then withdrawn from isoleucine, and provided yogurt unsupplemented with isoleucine. Within about 2 days both women recorded a reappearance of the former symptoms of IBS.

[5] = Day 1 of isoleucine application
[6] = Day 3 of isoleucine application
[7] = Day 7 of isoleucine application
[8] = 3rd day of ILE therapy, individual

With `CC[C@H](C)[C@H](N)C(=O)O` [isoleucine] the “Gingival epithelial cells with 0 Bacteria” value [1, 5] was 0 % cells, the “Gingival epithelial cells with 1-10 Bacteria” value [1, 5] was 10 % cells and the “Gingival epithelial cells with 10-100 Bacteria” value [1, 5] was 10 % cells. The “Gingival epithelial cells with Contiguous lawn” value [1, 5] was 80 % cells, the “Adherent bacteria in gingival smear” value ([1]; Day 3) was “dramatic reduction” and the “Cells fully covered with bacteria, of 100 cells examined” value ([1]; Day 3) was 40. For the same molecule, the “Microcolonies (contiguous groupings of greater than 4 organisms) on cells” value ([1]; Day 3) was “Few”, the “Neutrophils in gingival smear (sign of inflammation)” value ([1]; Day 3) was “No neutrophils were evident” and the “Total adherent bacteria per cell (most cells)” value ([1]; Day 3) was < 100. The “Gingival epithelial cells with 0 Bacteria” value [1, 6] was 15 % cells, the “Gingival epithelial cells with 1-10 Bacteria” value [1, 6] was 15 % cells and the “Gingival epithelial cells with 10-100 Bacteria” value [1, 6] was 30 % cells. The “Gingival epithelial cells with Contiguous lawn” value [1, 6] was 40 % cells, the “Cells completely free of bacteria” value ([1]; Day 7) was 80% and the “Cells fully covered with adherent bacteria” value ([1]; Day 7) was 5%. The “Cells with 1 to 10 bacteria/cell” value ([1]; Day 7) was 15%, the “Breath as described by an examiner” value ([1]; Day 7, in the AM, prior to oral hygiene) was “free of odor” and the “Gingival epithelial cells with 0 Bacteria” value [1, 7] was 80 % cells. The “Gingival epithelial cells with 1-10 Bacteria” value [1, 7] was 15 % cells, the “Gingival epithelial cells with 10-100 Bacteria” value [1, 7] was 0 % cells and the “Gingival epithelial cells with Contiguous lawn” value [1, 7] was 5 % cells. For the same molecule, the “Change in the number of epithelial cells covered with a dense coat of bacteria” value ([1]; gingival smear, Day 1 following initiation) was “little change”, the “Status following cessation of isoleucine administration” value ([2]; after therapy continued several days past menstrual discharge) was “remained symptom free” and the “Overall outcome of chronic vaginosis” value ([2]; repeated cycled administration in following months, based on symptoms and signs) was “effectively cured”. The Food tolerance [3, 8] was “cheese and chicken tolerated”, the Stools passed [3, 8] was “no stools were passed” and the “Shortening of the duration of diarrhea” value ([3]; MZ on isoleucine versus BZ and JZ on restricted diet only) was “approximately three”. For the same molecule, the “Day following ILE treatment by which a normal stool was passed and the diarrheal episode had passed” value ([3]; individual MZ) was ≤ 4 days, the “Time to reduction in stool frequency after initiation of ILE therapy” value ([3]; one individual, 0.001% ILE in distilled water, about 250 ml every several hours, begun six days after ingestion of agent) was ≤ 12 h and the Response during maintenance ([4]; maintained on isoleucine for 1 month) was “consistent response”. The “State of bowel function as described by the individuals” value ([4]; on isoleucine 1 tsp twice a day in yogurt) was “normal” and the “Time to reappearance of former symptoms of IBS after withdrawal from isoleucine” value ([4]; yogurt unsupplemented with isoleucine) was ≤ 2 days.
